Measured values reported in US11285127B2, “Compositions and methods for lowering triglycerides without raising LDL-C levels in a subject on concomitant statin therapy” (Amarin Pharmaceuticals Ireland Limited, priority 2013, dated 2022).

Test system: patients with fasting triglyceride levels >200 mg/dl and <500 mg/dl despite statin therapy
Assay: 12-week study: lipoprotein particle concentration (VLDL, LDL, HDL; nuclear magnetic resonance)
Assay type: in vivo, human
From the text: Parameters (a)-(z) can be measured in accordance with any clinically acceptable methodology. For example, triglycerides, total cholesterol, HDL-C and fasting blood sugar can be sample from serum and analyzed using standard photometry techniques. VLDL-TG, LDL-C and VLDL-C can be calculated or determined using serum lipoprotein fractionation by preparative ultracentrifugation and subsequent quantitative analysis by refractometry or by analytic ultracentrifugal methodology. Apo A1, Apo B and hsCRP can be determined from serum using standard nephelometry techniques. Lipoprotein (a) can be determined from serum using standard turbidimetric immunoassay techniques. LDL particle number and particle size can be determined using nuclear magnetic resonance (NMR) spectrometry. Remnants lipoproteins and LDL-phospholipase A2 can be determined from EDTA plasma or serum and serum, respectively, using enzymatic immunoseparation techniques. Oxidized LDL, intercellular adhesion molecule-1 and interleukin-2 levels can be determined from serum using standard enzyme immunoassay techniques. These techniques are described in detail in standard textbooks, for example Tietz Fundamentals of Clinical Chemistry, 6th Ed. (Burtis, Ashwood and Borter Eds.), WB Saunders Company.
A multi-center, placebo-controlled, randomized, double-blind, 12-week study was performed to evaluate the efficacy and safety of >96% E-EPA in patients with fasting triglyceride levels >200 mg/dl and <500 mg/dl despite statin therapy (the mean of two qualifying entry values needed to be >185 mg/dl and at least one of the values needed to be >200 mg/dl). The primary objective of the study was to determine the efficacy of >96% E-EPA 2 g daily and 4 g daily, compared to placebo, in lowering fasting TG levels in patients with high risk for cardiovascular disease and with fasting TG levels 200 mg/dl and <500 mg/dl, despite treatment to LDL-C goal on statin therapy.
The secondary objectives of this study were the following: • 1. To determine the safety and tolerability of >96% E-EPA 2 g daily and 4 g daily; • 2. To determine the effect of >96% E-EPA on lipid and apolipoprotein profiles including total cholesterol (TC), non-high-density lipoprotein cholesterol (non-HDL-C), low density lipoprotein cholesterol (LDL-C), high density lipoprotein cholesterol (HDL-C), and […]; • 3. To determine the effect of >96% E-EPA on lipoprotein associated phospholipase A2 (Lp-PLA2) from baseline to week 12; • 4. To determine the effect of >96% E-EPA on low-density lipoprotein (LDL) particle number and size; • 5. To determine the effect of >96% E-EPA on oxidized LDL; • 6. To determine the effect of >96% E-EPA on fasting plasma glucose (FPG) and hemoglobin A1c (HbA1c); • 7. To determine the effect of >96% E-EPA on insulin resistance; • 8. To determine the effect of >96% E-EPA on high-sensitivity C-reactive protein (hsCRP); • 9. To determine the effects of >96% E-EPA 2 g daily and 4 g daily on the incorporation of fatty acids into red blood cell membranes and into plasma phospholipids; • 10. To explore the relationship between baseline fasting TG levels and the reduction in fasting TG levels; and • 11. To explore the relationship between changes of fatty acid concentrations in plasma and red blood cell membranes, and the reduction in fasting TG levels.
The primary efficacy variable for the double-blind treatment period was percent change in TG from baseline to Week 12 endpoint. […]

[1] = IPE 4 g/day (n = 216), 12 weeks
[2] = IPE 4 g/day (n = 216); 12 weeks
[3] = IPE 4 g/day (n = 216); 12 weeks; IDL (23-29 nm)
[4] = IPE 4 g/day (n = 216); 12 weeks; large HDL (9.4-14.0 nm)
[5] = IPE 4 g/day (n = 216); 12 weeks; large LDL (20.5-23.0 nm)
[6] = IPE 4 g/day (n = 216); 12 weeks; large VLDL (>60 nm)
[7] = IPE 4 g/day (n = 216); 12 weeks; medium HDL (8.2-9.4 nm)
[8] = IPE 4 g/day (n = 216); 12 weeks; medium VLDL (42-60 nm)
[9] = IPE 4 g/day (n = 216); 12 weeks; small HDL (7.3-8.2 nm)
[10] = IPE 4 g/day (n = 216); 12 weeks; small LDL (18.0-20.5 nm)
[11] = IPE 4 g/day (n = 216); 12 weeks; small VLDL (29-42 nm)
[12] = IPE 4 g/day vs placebo; 12 weeks; Hodges-Lehmann median

SMILES: CC/C=C\C/C=C\C/C=C\C/C=C\C/C=C\CCCC(=O)OCC [AMR101, ethyl eicosapentaenoate]
- Total VLDL particle concentration, End of Treatment (median) (IPE 2 g/day (n = 222), 12 weeks): 122.4 nmol/L
- IDL particle concentration, Change from Baseline % (median) [1]: 23.7%
- IDL particle concentration, End of Treatment (median) [1]: 63.0 nmol/L
- Large HDL particle concentration, Change from Baseline % (median) [1]: −21.6%
- Large HDL particle concentration, End of Treatment (median) [1]: 1.9 µmol/L
- Large LDL particle concentration, Change from Baseline % (median) [1]: 55.2%
- Large LDL particle concentration, End of Treatment (median) [1]: 172.5 nmol/L
- Large VLDL particle concentration, Change from Baseline % (median) [1]: −41.9%
- Large VLDL particle concentration, End of Treatment (median) [1]: 7.7 nM
- Medium HDL particle concentration, Change from Baseline % (median) [1]: 4.2%
- Medium HDL particle concentration, End of Treatment (median) [1]: 6.9 µmol/L
- Medium VLDL particle concentration, Change from Baseline % (median) [1]: −6.9%
- Medium VLDL particle concentration, End of Treatment (median) [1]: 49.7 nmol/L
- Small HDL particle concentration, Change from Baseline % (median) [1]: −3.9%
- Small HDL particle concentration, End of Treatment (median) [1]: 23.1 µmol/L
- Small LDL particle concentration, Change from Baseline % (median) [1]: −1.1%
- Small LDL particle concentration, End of Treatment (median) [1]: 902.5 nmol/L
- Small VLDL particle concentration, Change from Baseline % (median) [1]: 8.3%
- Small VLDL particle concentration, End of Treatment (median) [1]: 46.8 nmol/L
- Total HDL particle concentration, Change from Baseline % (median) [1]: −4.0%
- Total HDL particle concentration, End of Treatment (median) [1]: 32.6 µmol/L
- Total LDL particle concentration, Change from Baseline % (median) [1]: 3.8%
- Total LDL particle concentration, End of Treatment (median) [1]: 1191 nmol/L
- Total VLDL particle concentration, Change from Baseline % (median) [1]: −2.5%
- Total VLDL particle concentration, End of Treatment (median) [1]: 110.0 nmol/L
- Total HDL particle concentration, Change from Baseline % (median) [2]: −4.0%
- Total HDL particle concentration, End of Treatment (median) [2]: 32.6 μmon/L
- Total LDL particle concentration, Change from Baseline % (median) [2]: 3.8%
- Total LDL particle concentration, End of Treatment (median) [2]: 1191 nmol/L
- Total VLDL particle concentration, Change from Baseline % (median) [2]: −2.5%
- Total VLDL particle concentration, End of Treatment (median) [2]: 110.0 nmol/L
- IDL particle concentration, Change from Baseline % (median) [3]: 23.7%
- IDL particle concentration, End of Treatment (median) [3]: 63.0 nmol/L
- Large HDL particle concentration, Change from Baseline % (median) [4]: −21.6%
- Large HDL particle concentration, End of Treatment (median) [4]: 1.9 μmon
- Large LDL particle concentration, Change from Baseline % (median) [5]: 55.2%
- Large LDL particle concentration, End of Treatment (median) [5]: 172.5 nmol/L
- Large VLDL particle concentration, Change from Baseline % (median) [6]: −41.9%
- Large VLDL particle concentration, End of Treatment (median) [6]: 7.7 nM
- Medium HDL particle concentration, Change from Baseline % (median) [7]: 4.2%
- Medium HDL particle concentration, End of Treatment (median) [7]: 6.9 μmon/L
- Medium VLDL particle concentration, Change from Baseline % (median) [8]: −6.9%
- Medium VLDL particle concentration, End of Treatment (median) [8]: 49.7 nmol/L
- Small HDL particle concentration, Change from Baseline % (median) [9]: −3.9%
- Small HDL particle concentration, End of Treatment (median) [9]: 23.1 μmon/L
- Small LDL particle concentration, Change from Baseline % (median) [10]: −1.1%
- Small LDL particle concentration, End of Treatment (median) [10]: 902.5 nmol/L
- Small VLDL particle concentration, Change from Baseline % (median) [11]: 8.3%
- Small VLDL particle concentration, End of Treatment (median) [11]: 46.8 nmol/L
- Total HDL particle concentration, Median Change From Baseline IPE 4 g/day vs Placebo, % [12]: −7.4%
- Total LDL particle concentration, Median Change From Baseline IPE 4 g/day vs Placebo, % [12]: −7.7%
- Total VLDL particle concentration, Median Change From Baseline IPE 4 g/day vs Placebo, % [12]: −12.2%
- IDL particle concentration, Median Change From Baseline IPE 4 g/day vs Placebo, % (IPE 4 g/day vs placebo; 12 weeks; Hodges-Lehmann median; IDL (23-29 nm)): 10.0%
- Large HDL particle concentration, Median Change From Baseline IPE 4 g/day vs Placebo, % (IPE 4 g/day vs placebo; 12 weeks; Hodges-Lehmann median; large HDL (9.4-14.0 nm)): −31.0%
- Large LDL particle concentration, Median Change From Baseline IPE 4 g/day vs Placebo, % (IPE 4 g/day vs placebo; 12 weeks; Hodges-Lehmann median; large LDL (20.5-23.0 nm)): 34.2%
- Large VLDL particle concentration, Median Change From Baseline IPE 4 g/day vs Placebo, % (IPE 4 g/day vs placebo; 12 weeks; Hodges-Lehmann median; large VLDL (>60 nm)): −46.4%
- Medium HDL particle concentration, Median Change From Baseline IPE 4 g/day vs Placebo, % (IPE 4 g/day vs placebo; 12 weeks; Hodges-Lehmann median; medium HDL (8.2-9.4 nm)): −6.5%
- Medium VLDL particle concentration, Median Change From Baseline IPE 4 g/day vs Placebo, % (IPE 4 g/day vs placebo; 12 weeks; Hodges-Lehmann median; medium VLDL (42-60 nm)): −12.1%
- Small HDL particle concentration, Median Change From Baseline IPE 4 g/day vs Placebo, % (IPE 4 g/day vs placebo; 12 weeks; Hodges-Lehmann median; small HDL (7.3-8.2 nm)): −2.8%
- Small LDL particle concentration, Median Change From Baseline IPE 4 g/day vs Placebo, % (IPE 4 g/day vs placebo; 12 weeks; Hodges-Lehmann median; small LDL (18.0-20.5 nm)): −13.5%
- Small VLDL particle concentration, Median Change From Baseline IPE 4 g/day vs Placebo, % (IPE 4 g/day vs placebo; 12 weeks; Hodges-Lehmann median; small VLDL (29-42 nm)): 2.8%
